According to ChEMBL document CHEMBL1123438, “Queuine analogues. Their synthesis and inhibition of growth of mouse L5178Y cells in vitro” (1986):

Tested on: L5178Y
Test: Inhibition of L5178Y cell growth at 100 ug/mL.
Details: not given

SMILES	Inhibition [%]
Nc1nc(O)c2c(CNCC(O)CO)c[nH]c2n1 (stereo unspecified)	31
CC1(C)OC2C(NCc3c[nH]c4nc(N)nc(S)c34)C=C[C@@H]2O1 (stereo partly specified)	94
CC(C)C(=O)NCc1c[nH]c2nc(N)nc(O)c12	87
CC1(C)OC2C(NCc3c[nH]c4nc(N)nc(O)c34)C=C[C@H]2O1 (stereo partly specified)	21
Nc1nc(O)c2c(CN3CCCCC3)c[nH]c2n1	36
Nc1nc(O)c2c(CNCc3ccc(I)cc3)c[nH]c2n1	77
Nc1nc(O)c2c(CNC3C=C[C@@H](O)C3O)c[nH]c2n1 (stereo partly specified)	23
Nc1nc(O)c2c(CNCCOCCO)c[nH]c2n1	9
Nc1nc(O)c2c(CNC(=O)CI)c[nH]c2n1	89
NCc1c[nH]c2nc(N)nc(S)c12	77
CCCNCc1c[nH]c2nc(N)nc(O)c12	43
Nc1nc(O)c2c(CNc3ccccc3O)c[nH]c2n1	90
Nc1nc(O)c2c(CNC3CCCC3)c[nH]c2n1	74
Nc1nc(O)c2c(CNC3C=C[C@@H](O)[C@H]3O)c[nH]c2n1 (stereo partly specified)	20
N/C(=N/Cc1c[nH]c2nc(N)nc(O)c12)c1cc(I)c(O)c(I)c1	89
Nc1nc(O)c2c(n1)N=CC2CNCC(=O)O (stereo unspecified)	20
Nc1nc(S)c2c(CNC3C=C[C@H](O)C3O)c[nH]c2n1 (stereo partly specified)	88
Nc1nc(O)c2c(CNC3C=C[C@H](O)[C@@H]3O)c[nH]c2n1 (stereo partly specified)	53
CC1(C)OC2C(NCc3c[nH]c4nc(N)nc(O)c34)C=C[C@@H]2O1 (stereo partly specified)	34
Nc1nc(O)c2c(CNc3cccc(O)c3)c[nH]c2n1	79

Tested on: L5178Y
Test: Compound was tested for inhibition of growth of L5178Y cells at concentration of 1 ug/mL
Assay type: functional
Details: Mus musculus

SMILES	inhibition at 1 µg/mL [%]
CC1(C)OC2C(NCc3c[nH]c4nc(N)nc(S)c34)C=C[C@@H]2O1 (stereo partly specified)	46
Nc1nc(O)c2c(CNC(=O)CI)c[nH]c2n1	49
NCc1c[nH]c2nc(N)nc(S)c12	< 10
Nc1nc(O)c2c(CNc3ccccc3O)c[nH]c2n1	25
Nc1nc(S)c2c(CNC3C=C[C@H](O)C3O)c[nH]c2n1 (stereo partly specified)	12
Nc1nc(O)c2c(CNc3cccc(O)c3)c[nH]c2n1	12

Tested on: L5178Y
Test: Inhibition of L5178Y cell growth at 10 ug/mL.
Details: not given

SMILES	Inhibition [%]
Nc1nc(O)c2c(CNCC(O)CO)c[nH]c2n1 (stereo unspecified)	<10
CC1(C)OC2C(NCc3c[nH]c4nc(N)nc(S)c34)C=C[C@@H]2O1 (stereo partly specified)	87
CC(C)C(=O)NCc1c[nH]c2nc(N)nc(O)c12	16
CC1(C)OC2C(NCc3c[nH]c4nc(N)nc(O)c34)C=C[C@H]2O1 (stereo partly specified)	<10
Nc1nc(O)c2c(CN3CCCCC3)c[nH]c2n1	<10
Nc1nc(O)c2c(CNCc3ccc(I)cc3)c[nH]c2n1	19
Nc1nc(O)c2c(CNC3C=C[C@@H](O)C3O)c[nH]c2n1 (stereo partly specified)	<10
Nc1nc(O)c2c(CNCCOCCO)c[nH]c2n1	<10
Nc1nc(O)c2c(CNC(=O)CI)c[nH]c2n1	87
NCc1c[nH]c2nc(N)nc(S)c12	36
CCCNCc1c[nH]c2nc(N)nc(O)c12	<10
Nc1nc(O)c2c(CNc3ccccc3O)c[nH]c2n1	53
Nc1nc(O)c2c(CNC3CCCC3)c[nH]c2n1	17
Nc1nc(O)c2c(CNC3C=C[C@@H](O)[C@H]3O)c[nH]c2n1 (stereo partly specified)	<10
N/C(=N/Cc1c[nH]c2nc(N)nc(O)c12)c1cc(I)c(O)c(I)c1	31
Nc1nc(O)c2c(n1)N=CC2CNCC(=O)O (stereo unspecified)	<10
Nc1nc(S)c2c(CNC3C=C[C@H](O)C3O)c[nH]c2n1 (stereo partly specified)	54
Nc1nc(O)c2c(CNC3C=C[C@H](O)[C@@H]3O)c[nH]c2n1 (stereo partly specified)	<10
CC1(C)OC2C(NCc3c[nH]c4nc(N)nc(O)c34)C=C[C@@H]2O1 (stereo partly specified)	<10
Nc1nc(O)c2c(CNc3cccc(O)c3)c[nH]c2n1	65

Molecular target: T1, Queuine tRNA-ribosyltransferase catalytic subunit 1 (Rattus norvegicus) (UniProt Q4QR99)
T1 sequence (whole entry): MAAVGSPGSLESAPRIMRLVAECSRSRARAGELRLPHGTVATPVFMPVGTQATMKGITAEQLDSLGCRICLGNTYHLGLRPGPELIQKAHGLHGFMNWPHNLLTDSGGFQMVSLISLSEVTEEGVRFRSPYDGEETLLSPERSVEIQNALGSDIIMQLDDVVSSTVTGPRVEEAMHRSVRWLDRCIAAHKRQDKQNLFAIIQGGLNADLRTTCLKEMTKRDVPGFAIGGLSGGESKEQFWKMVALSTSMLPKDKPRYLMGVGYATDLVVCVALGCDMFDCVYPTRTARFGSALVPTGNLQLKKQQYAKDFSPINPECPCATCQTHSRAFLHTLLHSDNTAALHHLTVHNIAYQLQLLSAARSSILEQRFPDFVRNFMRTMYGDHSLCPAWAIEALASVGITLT
Test: Ability to act as substrate of rat liver tRNA-Guanine Transglycosylase.
Details: not given

SMILES	Incorporation [%]
CC1(C)OC2C(NCc3c[nH]c4nc(N)nc(S)c34)C=C[C@@H]2O1 (stereo partly specified)	123
Nc1nc(O)c2c(CN3CCCCC3)c[nH]c2n1	65
Nc1nc(O)c2c(CNCc3ccc(I)cc3)c[nH]c2n1	98
Nc1nc(O)c2c(CNCCOCCO)c[nH]c2n1	98
NCc1c[nH]c2nc(N)nc(S)c12	50
N/C(=N/Cc1c[nH]c2nc(N)nc(O)c12)c1cc(I)c(O)c(I)c1	48
Nc1nc(O)c2c(n1)N=CC2CNCC(=O)O (stereo unspecified)	48
Nc1nc(O)c2c(CNc3cccc(O)c3)c[nH]c2n1	33

Other lines, results leading:

Incorporation [%]	SMILES
88	Nc1nc(O)c2c(CNCC(O)CO)c[nH]c2n1 (stereo unspecified)
36	CC(C)C(=O)NCc1c[nH]c2nc(N)nc(O)c12
100	CC1(C)OC2C(NCc3c[nH]c4nc(N)nc(O)c34)C=C[C@H]2O1 (stereo partly specified)
120	Nc1nc(O)c2c(CNC3C=C[C@@H](O)C3O)c[nH]c2n1 (stereo partly specified)
0	Nc1nc(O)c2c(CNC(=O)CI)c[nH]c2n1
94	CCCNCc1c[nH]c2nc(N)nc(O)c12
76	Nc1nc(O)c2c(CNc3ccccc3O)c[nH]c2n1
80	Nc1nc(O)c2c(CNC3CCCC3)c[nH]c2n1
100	Nc1nc(O)c2c(CNC3C=C[C@@H](O)[C@H]3O)c[nH]c2n1 (stereo partly specified)
78	Nc1nc(S)c2c(CNC3C=C[C@H](O)C3O)c[nH]c2n1 (stereo partly specified)
70	Nc1nc(O)c2c(CNC3C=C[C@H](O)[C@@H]3O)c[nH]c2n1 (stereo partly specified)
55	CC1(C)OC2C(NCc3c[nH]c4nc(N)nc(O)c34)C=C[C@@H]2O1 (stereo partly specified)
